Source: patent US20080269317A1, “Compounds for Covalent Binding to MD-2 and Effect on the Immune Response” (priority 2005, published 2008)

Columns and labels:
MD-2 [1] = biological target: T1, MD-2 (Homo sapiens, UniProt Q9Y6Y9); experiment: Binding to MD-2 monitored through the increase of the fluorescence (spectrofluorimeter); conditions: 100 nM MD-2 added to 200 nM compound in milliQ water, 25° C., time dependent
T1 construct: made in house; host or cells: Escherichia coli
T1 sequence (Q9Y6Y9 19-160): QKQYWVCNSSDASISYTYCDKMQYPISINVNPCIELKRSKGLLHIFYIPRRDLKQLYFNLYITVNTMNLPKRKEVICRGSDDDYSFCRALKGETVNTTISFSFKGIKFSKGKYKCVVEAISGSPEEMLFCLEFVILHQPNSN
Excerpt: In the first example of the invention we used recombinant MD-2 produced in bacteria Escherichia coli to test the binding of the compounds, which contain a hydrophobic group and a group, which binds to the cysteine residue. This protein has biological activity as endogenous MD-2 and added protein enables response to LPS to cells lacking endogenous MD-2. We tested binding of compounds 2-(4′-(iodoacetamido)anilino)naphthalene-6-sulfonic acid (IAANS) and N-(1-pyrene)maleimide, which in addition to the above mentioned properties also have the additional feature of fluorescence, which makes them useful to show the principle of the invention. […] Change of the environment, which is a result of binding of the compound into the hydrophobic pocket, causes an increase of the fluorescence intensity of compounds, which is detected by measuring the emission fluorescence spectra using the spectrofluorimeter. […]
IAANS (Molecular Probes, USA) is an example of a compound with an alkylhalide group, which is reactive with a thiol group, an anilinonaphthalene group as a hydrophobic group and a sulfonic group as an anionic group. […] IAANS concentration was determined by measuring the absorbance at 326 nm in methanol (extinction coefficient at 326 nm in methanol is 27 000 cm^−1M^−1). […] Binding to MD-2 increases the fluorescence intensities of both compounds. […]

MD-2 [2] = biological target: T1, MD-2; experiment: Covalent binding to MD-2: fluorescence after GdnHCl denaturation and acetone precipitation, with or without iodoacetamide blocking
Procedure: In the second example of the invention we show, that binding of the compound to MD-2 is irreversible, therefore after binding to MD-2, compound remains permanently bound to the protein and therefore prevent binding of LPS or other ligands to MD-2.
The compounds with features mentioned above covalently bind to MD-2. The binding experiment was performed by adding to the concentration of MD-2 two times concentration excess of N-(1-pyrene) maleimide and incubated one hour at room temperature in the dark. The compound, which nonspecifically (noncovalently) bound to MD-2 was released from the protein by denaturation of the protein in 6 M guanidinium hydrochloride (GdnHCl). To the dissolved denatured protein we added five volumes of chilled (−20° C.) acetone and incubated for additional 60 min at −20° C. Then we centrifuged for 10 min at 13 000 rpm. […] The precipitate was dissolved in […] of 6 M GdnHCl and fluorescence emission spectrum was measured with excitation at 338 nm (FIG. 2). […] Binding of iodoacetamide inhibited binding of a compound to free cysteine residue on MD-2, which can be detected by lower fluorescence intensity of the compound.
We compared the fluorescence of MD-2, incubated with N-(1-pyrene) maleimide and to MD-2, with said compound, where we have previously added iodoacetamide for blocking free cysteine residues.

MonoMac6 cells [3] = experiment: Inhibition of TNF-alpha synthesis (ELISA) in MonoMac6 cells stimulated with LPS; format: cell-based, human; conditions: different concentrations of IAANS, 1 hour, then 20 ng/ml LPS; supernatant after 20 hours
Excerpt: The effect of certain compound on the cell activation by LPS can also be detected by determination of the amount of cytokines, which are released by the cell activation. Addition of LPS to macrophage cells (or other cells, which normally express MD-2 and TLR4) causes the secretion of inflammatory cytokines such as TNF-alpha, IL-1, IL-8 . . . […] The amount of cytokines released into the media can be determined by the ELISA test. For the experiment we used monocytic cells MonoMac6. To 96-well plate we seeded 1×10^5 cells per well in media for MonoMac6 cells (RPMI with 10% FBS, nonessential aminoacids and OPI (both from Sigma)). 50 ng/ml of phorbol 12-myristate […] (Sigma) needed for differentiation into macrophages was added to cells. IAANS was added at different concentrations and incubated 1 hour, followed by the addition of 20 ng/ml LPS. 20 hours after the stimulation we took the supernatant, centrifuged it for 3 min on 13 000 rpm and performed the ELISA test for TNF-alpha.
To MonoMac6 cells, which express MD-2 and TLR4, we added different concentrations of IAANS and LPS and determined the concentration of TNF-alpha in media using the ELISA test.

MonoMac6 cells [4] = experiment: Activation of MonoMac6 cells without LPS, monitored through secreted TNF-alpha (ELISA); format: cell-based, human; conditions: different concentrations of IAANS, no LPS; supernatant after 20 hours
Excerpt: The activation of the host innate immune system can have an important role for the treatment of diseases such as microbial infections, cancer and other diseases, where the participation of the innate immunity system is important. It is important that the compound, which activates the innate immune system has no other effects. If the compound activates the cells of the innate immunity, the same cytokines are secreted as by the activation with LPS, so the same assay can be used. For the assay we have used human monocytic cells MonoMac6. Into the 96-well plate we seeded 1×10^5 cells per well in the media for MonoMac6 cells. We added 50 ng/ml of phorbol 12-myristate […] (Sigma), which is needed for differentiation of cells into macrophages. Then we added different concentrations of IAANS and incubated. 20 hours after the stimulation we took the cell supernatants, centrifuged for 3 min at 13 000 rpm and performed ELISA test for TNF-alpha.
To MonoMac6 cells we added different concentrations of IAANS. […] Cells secreted TNF-alpha, which stimulates the innate immune response, which is important for the acquired immunity at vaccination or treatment of disease such as cancer, where the activation of host immune response is desirable. […]

SMILES | change of the fluorescence intensity at emission maximum after addition of MD-2 (MD-2 [1]) | covalent (irreversible) binding to MD-2: emission spectrum preserved in 6 M GdnHCl (MD-2 [2]; two times excess of compound, one hour at room temperature, denaturation in 6 M GdnHCl, acetone precipitation, excitation 338 nm) | inhibition of LPS dependent synthesis of TNF-alpha (MonoMac6 cells [3]) | activation of MonoMac6 cells (secreted TNF-alpha) (MonoMac6 cells [4]) | effect of previous incubation with iodoacetamide on binding of N-(1-pyrene) maleimide to MD-2 (MD-2 [2]; five molar excess of iodoacetamide added beforehand to block free cysteine residues)
O=C1C=CC(=O)N1c1ccc2ccc3cccc4ccc1c2c34 [N-(1-pyrene) maleimide, N-(1-pyrene)maleimide] | increase of the N-(1-pyrene) maleimide fluorescence after binding to MD-2 | irreversibly bound to MD-2 |  |  | 
O=C(CI)Nc1ccc(Nc2ccc3cc(S(=O)(=O)O)ccc3c2)cc1 [IAANS, 2-(4′-(iodoacetamido)anilino)naphthalene-6-sulfonic acid] | increase of the IAANS fluorescence after binding to MD-2 |  | inhibited LPS dependent synthesis of TNF-alpha in a concentration-dependent manner | activated the cells in the concentration dependent manner | 
NC(=O)CI [iodoacetamide, reference compound] |  |  |  |  | inhibited binding of N-(1-pyrene) maleimide to MD-2
